This passage reports Ki and inhibition results from ChEMBL document CHEMBL4732166, “Thiosemicarbazide binds with the dicopper center in the competitive inhibition of mushroom tyrosinase enzyme: Synthesis and molecular modeling of theophylline analogues” (Bioorg Med Chem Lett, 2021).

For one assay, the target named is T1, Mushroom tyrosinase (Agaricus bisporus, UniProt O42713+Q00024+C7FF04+C7FF05). Put plainly: Inhibition of mushroom tyrosinase using […] as substrate.
Details: not given
Usually Ki stands for a dissociation constant, usually derived from enzyme kinetics or from competition with a known ligand. A lower Ki goes with tighter binding. For the molecule `CCn1c(Oc2ccc(/C=N/NC(N)=S)cc2)nc2c1c(=O)n(C)c(=O)n2C`, the affinity, expressed as Ki, was 670 nM.

A further assay deals with T1, Mushroom tyrosinase. Put plainly: Competitive inhibition of mushroom tyrosinase using […] as substrate by Lineweaver-Burk plot analysis.
Details: not given
With `CCn1c(Oc2ccc(/C=N/NC(N)=S)cc2)nc2c1c(=O)n(C)c(=O)n2C`, the Ki turned out to be 670 nM. In other words, the sub-micromolar range.

In another assay the target is Mushroom tyrosinase (Agaricus bisporus) (UniProt O42713+Q00024+C7FF04+C7FF05). Conditions: dose 50.0 µM.
Description: Inhibition of mushroom tyrosinase using PNP-G as substrate at 50 nM relative to control
As a reminder, the inhibition is the change of the read-out against control, counted positive when it falls. A high value points to strong suppression. In the case of `CCn1c(NN)nc2c1c(=O)n(C)c(=O)n2C`, the inhibition is above 40%.
Still for that read-out and setting: the value for `CCn1c(Oc2ccc(/C=N/Nc3ccccn3)cc2)nc2c1c(=O)n(C)c(=O)n2C` was above 40%; that for `CCn1c(Oc2ccc(C=C3C(=O)NC(=S)NC3=O)cc2)nc2c1c(=O)n(C)c(=O)n2C` was 30.2%; that for `CCn1c(Oc2ccc(/C=N/N=C3/NC(=O)CS3)cc2)nc2c1c(=O)n(C)c(=O)n2C` was 29.4%.
On to `CCn1c(Oc2ccc(/C=N\NC(=O)c3cccnc3)cc2)nc2c1c(=O)n(C)c(=O)n2C`, for which the inhibition was 40.3%.
`CCn1c(Oc2ccc(C=O)cc2)nc2c1c(=O)n(C)c(=O)n2C` returned an inhibition of 29.5%.
`CCn1c(Oc2ccc(C3C4=C(CC(C)(C)CC4=O)NC4=C3C(=O)CC(C)(C)C4)cc2)nc2c1c(=O)n(C)c(=O)n2C` came in with an inhibition above 40%.
`CCn1c(Oc2ccc(C=C(C#N)C#N)cc2)nc2c1c(=O)n(C)c(=O)n2C` showed an inhibition above 40%.
For the molecule `CCn1c(Oc2ccc(C3C(C#N)=C(N)Oc4[nH]c(=S)[nH]c(=O)c43)cc2)nc2c1c(=O)n(C)c(=O)n2C` (stereo not drawn), the inhibition amounted to 32.7%.
In turn, `CCn1c(Oc2ccc(-c3nc(-c4ccccc4)c(-c4ccccc4)[nH]3)cc2)nc2c1c(=O)n(C)c(=O)n2C` had an inhibition above 40%.
With `CCn1c(Oc2ccc(/C=N/NC(N)=S)cc2)nc2c1c(=O)n(C)c(=O)n2C`, the inhibition is above 40%.
Molecule `CCn1c(Oc2ccc(/C=N/N=C3/C(=O)Nc4ccccc43)cc2)nc2c1c(=O)n(C)c(=O)n2C` showed an inhibition above 40%.
`CCn1c(Oc2ccc(/C=N\Nc3c(F)c(F)c(F)c(F)c3F)cc2)nc2c1c(=O)n(C)c(=O)n2C`: the inhibition is above 40%.
`CCn1c(N/N=C/c2nc3ccccc3[nH]2)nc2c1c(=O)n(C)c(=O)n2C` registered an inhibition of 27%.
`CCn1c(Oc2ccc(-c3nnc(NC(C)=O)s3)cc2)nc2c1c(=O)n(C)c(=O)n2C` showed an inhibition of 33.6%.
`CCn1c(Oc2ccc(/C=N/N)cc2)nc2c1c(=O)n(C)c(=O)n2C` displayed an inhibition above 40%.
